This note sets out measurements from ChEMBL document CHEMBL5465560, “Selectivity Literature for EUbOPEN Chemogenomic Library” (2024).

The target of experiment [1] is Tyrosine-protein kinase Fes/Fps (Homo sapiens) (UniProt P07332). The experiment in a line: Selectivity interaction (ActivX KiNativ screen (ex vivo kinase selectivity in human PBMCs)) EUB0001619a FES. The settings on record: PBMC, at 1 µM. The format is cell-based.
The target of experiment [2] is Calcium/calmodulin-dependent protein kinase type II subunit delta (Homo sapiens) (UniProt Q13557). Kind of experiment: Selectivity interaction (KinomeScan (DiscoverX)) EUB0001619a CAMK2D. The settings on record: at 1 µM.
Calcium/calmodulin-dependent protein kinase type II subunit delta (Homo sapiens), sequence (Q13557 whole entry): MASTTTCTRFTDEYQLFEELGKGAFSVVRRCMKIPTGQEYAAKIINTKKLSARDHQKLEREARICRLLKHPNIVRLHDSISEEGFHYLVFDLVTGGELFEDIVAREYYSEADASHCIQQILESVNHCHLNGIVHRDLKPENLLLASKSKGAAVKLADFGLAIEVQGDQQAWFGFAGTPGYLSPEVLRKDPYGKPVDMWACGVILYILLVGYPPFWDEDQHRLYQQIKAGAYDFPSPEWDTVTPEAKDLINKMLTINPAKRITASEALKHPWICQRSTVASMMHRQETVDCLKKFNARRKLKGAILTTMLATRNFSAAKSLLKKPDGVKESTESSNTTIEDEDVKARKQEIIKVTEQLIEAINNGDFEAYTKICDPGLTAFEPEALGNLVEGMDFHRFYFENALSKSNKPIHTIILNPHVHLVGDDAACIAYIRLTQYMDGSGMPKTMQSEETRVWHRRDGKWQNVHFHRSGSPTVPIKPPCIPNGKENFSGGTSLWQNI
The target of experiment [3] is Serine/threonine-protein kinase 25 (Homo sapiens) (UniProt O00506). Kind of experiment: Selectivity interaction (KinomeScan (DiscoverX)) EUB0000699a STK25. As to conditions: at 10 µM.
For experiment [4], the target named is T1, Discoidin domain-containing receptor 2 (Homo sapiens) (UniProt Q16832).
T1 sequence (whole entry): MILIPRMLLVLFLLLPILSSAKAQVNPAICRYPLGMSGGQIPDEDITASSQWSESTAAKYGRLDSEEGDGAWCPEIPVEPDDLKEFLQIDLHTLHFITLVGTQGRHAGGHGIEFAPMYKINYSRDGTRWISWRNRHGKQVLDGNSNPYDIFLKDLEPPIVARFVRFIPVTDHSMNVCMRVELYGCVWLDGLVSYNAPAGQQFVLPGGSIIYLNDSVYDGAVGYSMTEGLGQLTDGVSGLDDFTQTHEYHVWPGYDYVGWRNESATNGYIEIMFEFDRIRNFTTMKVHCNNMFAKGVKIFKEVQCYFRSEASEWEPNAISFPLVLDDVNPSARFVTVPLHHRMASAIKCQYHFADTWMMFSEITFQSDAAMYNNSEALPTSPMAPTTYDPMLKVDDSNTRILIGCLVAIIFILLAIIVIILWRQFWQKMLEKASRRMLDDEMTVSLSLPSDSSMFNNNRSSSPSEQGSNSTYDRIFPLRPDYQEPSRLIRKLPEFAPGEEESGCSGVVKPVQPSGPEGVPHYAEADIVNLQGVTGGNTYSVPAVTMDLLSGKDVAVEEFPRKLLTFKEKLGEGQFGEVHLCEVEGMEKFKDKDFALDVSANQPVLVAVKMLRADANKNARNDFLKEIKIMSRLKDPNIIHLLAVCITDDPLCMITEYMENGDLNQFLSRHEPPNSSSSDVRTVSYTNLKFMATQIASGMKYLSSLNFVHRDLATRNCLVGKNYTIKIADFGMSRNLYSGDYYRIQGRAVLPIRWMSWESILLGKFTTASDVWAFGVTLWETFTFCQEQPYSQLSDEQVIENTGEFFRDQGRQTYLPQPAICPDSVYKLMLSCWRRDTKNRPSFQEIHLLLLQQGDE
The settings on record: at 10 µM.

Experiment [5] concerns the target Serine/threonine-protein kinase Nek7 (Homo sapiens) (UniProt Q8TDX7). As to conditions: at 10 µM.
For experiment [6], the target named is T2, Ephrin type-A receptor 3 (Homo sapiens) (UniProt P29320).
T2 sequence (whole entry): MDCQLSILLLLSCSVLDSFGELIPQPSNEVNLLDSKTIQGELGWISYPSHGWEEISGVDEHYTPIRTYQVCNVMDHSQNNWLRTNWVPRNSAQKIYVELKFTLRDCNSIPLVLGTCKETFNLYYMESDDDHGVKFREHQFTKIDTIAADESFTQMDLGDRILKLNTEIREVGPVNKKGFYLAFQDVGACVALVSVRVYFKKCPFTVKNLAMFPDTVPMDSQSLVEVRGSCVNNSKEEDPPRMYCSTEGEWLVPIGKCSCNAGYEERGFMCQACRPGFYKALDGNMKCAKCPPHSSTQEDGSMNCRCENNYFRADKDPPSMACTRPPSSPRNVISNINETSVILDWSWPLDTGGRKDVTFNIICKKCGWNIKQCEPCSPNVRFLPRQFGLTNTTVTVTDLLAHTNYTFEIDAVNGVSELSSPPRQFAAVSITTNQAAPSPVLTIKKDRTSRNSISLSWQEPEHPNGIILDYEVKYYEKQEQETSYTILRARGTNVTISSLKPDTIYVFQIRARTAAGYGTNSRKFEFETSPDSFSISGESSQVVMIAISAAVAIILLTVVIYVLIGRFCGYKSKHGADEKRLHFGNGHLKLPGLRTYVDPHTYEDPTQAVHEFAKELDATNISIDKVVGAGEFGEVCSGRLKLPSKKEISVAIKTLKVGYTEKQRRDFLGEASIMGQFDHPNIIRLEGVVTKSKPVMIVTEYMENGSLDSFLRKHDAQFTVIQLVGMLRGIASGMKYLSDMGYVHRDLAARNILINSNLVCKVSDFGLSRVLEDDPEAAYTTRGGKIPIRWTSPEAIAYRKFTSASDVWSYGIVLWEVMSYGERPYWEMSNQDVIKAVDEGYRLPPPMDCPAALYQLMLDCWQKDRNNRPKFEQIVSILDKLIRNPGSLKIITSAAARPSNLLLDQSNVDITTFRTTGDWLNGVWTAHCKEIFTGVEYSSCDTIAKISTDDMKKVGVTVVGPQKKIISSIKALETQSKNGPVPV
The settings on record: at 10 µM.

In experiment [7] the target is Serine/threonine-protein kinase PRP4 homolog (Homo sapiens) (UniProt Q13523). The experiment in a line: Selectivity interaction (ActivX KiNativ screen (kinase selectivity in THP-1 cell lysates)) EUB0000639a PRPF4. As to conditions: lysate, at 0.2 µM. In kind it is subcellular.
Experiment [8] has as its target Serine/threonine-protein kinase/endoribonuclease IRE1 (Homo sapiens) (UniProt O75460). The experiment in a line: Selectivity interaction (KinomeScan (DiscoverX)) EUB0000045b ERN1.
The target in experiment [9] is Rho-associated protein kinase 1 (Homo sapiens) (UniProt Q13464). Kind of experiment: Selectivity interaction (KinomeScan (DiscoverX)) EUB0000045b ROCK1.
Rho-associated protein kinase 1 (Homo sapiens), sequence (Q13464 2-1354 limits assumed): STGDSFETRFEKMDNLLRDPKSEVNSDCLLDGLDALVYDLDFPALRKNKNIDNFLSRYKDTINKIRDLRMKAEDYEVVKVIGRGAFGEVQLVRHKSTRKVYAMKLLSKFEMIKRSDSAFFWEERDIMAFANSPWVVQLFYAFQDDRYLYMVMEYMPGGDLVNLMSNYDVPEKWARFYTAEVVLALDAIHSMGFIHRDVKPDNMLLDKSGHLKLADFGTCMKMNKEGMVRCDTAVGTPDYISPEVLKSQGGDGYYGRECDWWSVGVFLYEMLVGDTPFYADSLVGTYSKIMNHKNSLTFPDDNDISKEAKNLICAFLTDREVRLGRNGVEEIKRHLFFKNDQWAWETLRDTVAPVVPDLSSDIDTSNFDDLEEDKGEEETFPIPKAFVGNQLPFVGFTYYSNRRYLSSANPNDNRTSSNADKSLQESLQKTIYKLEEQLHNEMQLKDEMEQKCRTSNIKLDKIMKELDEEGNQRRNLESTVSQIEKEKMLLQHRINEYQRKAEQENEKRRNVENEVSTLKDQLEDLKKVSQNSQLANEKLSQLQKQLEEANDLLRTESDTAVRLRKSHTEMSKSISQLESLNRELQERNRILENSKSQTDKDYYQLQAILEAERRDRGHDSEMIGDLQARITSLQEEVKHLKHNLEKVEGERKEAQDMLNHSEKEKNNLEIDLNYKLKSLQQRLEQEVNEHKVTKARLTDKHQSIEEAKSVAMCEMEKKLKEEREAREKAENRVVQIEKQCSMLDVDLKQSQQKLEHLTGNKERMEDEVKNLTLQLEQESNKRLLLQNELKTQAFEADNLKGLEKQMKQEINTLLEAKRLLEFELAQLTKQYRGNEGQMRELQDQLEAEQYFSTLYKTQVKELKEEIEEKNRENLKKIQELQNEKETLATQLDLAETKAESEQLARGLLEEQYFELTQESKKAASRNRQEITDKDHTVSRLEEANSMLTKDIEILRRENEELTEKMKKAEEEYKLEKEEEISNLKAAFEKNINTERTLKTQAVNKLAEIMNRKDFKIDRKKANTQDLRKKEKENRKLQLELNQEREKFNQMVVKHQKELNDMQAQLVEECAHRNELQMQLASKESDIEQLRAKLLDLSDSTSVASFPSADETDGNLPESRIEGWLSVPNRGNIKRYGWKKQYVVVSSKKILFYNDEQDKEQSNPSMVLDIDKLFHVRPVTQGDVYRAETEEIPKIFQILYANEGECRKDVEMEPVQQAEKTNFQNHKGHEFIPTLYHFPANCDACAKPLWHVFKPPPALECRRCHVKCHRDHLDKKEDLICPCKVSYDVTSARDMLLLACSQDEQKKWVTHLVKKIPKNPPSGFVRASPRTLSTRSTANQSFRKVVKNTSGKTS
Experiment [10] deals with Mitotic checkpoint serine/threonine-protein kinase BUB1 beta (Homo sapiens) (UniProt O60566). Kind of experiment: Selectivity interaction (ProQinase) EUB0000171b BUB1B.
Mitotic checkpoint serine/threonine-protein kinase BUB1 beta (Homo sapiens), sequence (O60566 whole entry): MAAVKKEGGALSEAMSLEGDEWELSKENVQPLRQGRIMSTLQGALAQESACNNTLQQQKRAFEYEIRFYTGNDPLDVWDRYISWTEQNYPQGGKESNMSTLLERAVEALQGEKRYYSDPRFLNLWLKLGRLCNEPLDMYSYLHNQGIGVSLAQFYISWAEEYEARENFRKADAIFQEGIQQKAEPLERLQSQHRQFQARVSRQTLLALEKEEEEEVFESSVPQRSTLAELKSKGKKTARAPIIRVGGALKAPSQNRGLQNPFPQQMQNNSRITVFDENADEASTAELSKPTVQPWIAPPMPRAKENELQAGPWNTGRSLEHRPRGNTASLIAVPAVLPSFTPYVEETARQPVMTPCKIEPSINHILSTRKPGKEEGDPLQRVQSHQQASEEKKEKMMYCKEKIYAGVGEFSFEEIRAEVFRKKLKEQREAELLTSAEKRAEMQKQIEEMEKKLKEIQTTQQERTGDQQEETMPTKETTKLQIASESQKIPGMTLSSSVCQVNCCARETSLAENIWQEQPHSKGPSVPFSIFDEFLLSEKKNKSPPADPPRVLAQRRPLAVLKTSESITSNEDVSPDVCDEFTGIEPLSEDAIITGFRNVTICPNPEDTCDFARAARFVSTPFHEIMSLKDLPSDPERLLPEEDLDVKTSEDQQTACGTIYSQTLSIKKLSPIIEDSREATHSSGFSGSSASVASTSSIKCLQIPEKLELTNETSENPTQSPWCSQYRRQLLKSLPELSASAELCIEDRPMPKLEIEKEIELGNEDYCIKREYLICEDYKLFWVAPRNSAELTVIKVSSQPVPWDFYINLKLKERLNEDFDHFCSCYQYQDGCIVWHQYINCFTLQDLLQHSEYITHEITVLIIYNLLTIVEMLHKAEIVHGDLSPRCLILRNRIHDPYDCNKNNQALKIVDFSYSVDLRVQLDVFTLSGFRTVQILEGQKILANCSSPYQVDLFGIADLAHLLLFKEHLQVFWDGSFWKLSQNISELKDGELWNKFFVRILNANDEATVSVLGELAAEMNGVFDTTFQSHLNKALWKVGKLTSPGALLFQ
The target in experiment [11] is Angiopoietin-1 receptor (Homo sapiens) (UniProt Q02763). Kind of experiment: Selectivity interaction (KinomeScan (DiscoverX)) EUB0001049a TEK. The settings on record: at 1 µM.
The target of experiment [12] is Calcium/calmodulin-dependent protein kinase type 1 (Homo sapiens) (UniProt Q14012). Kind of experiment: Selectivity interaction (KinomeScan (DiscoverX)) EUB0000092b CAMK1. As to conditions: at 10 µM.
Calcium/calmodulin-dependent protein kinase type 1 (Homo sapiens), sequence (Q14012 whole entry, looked up): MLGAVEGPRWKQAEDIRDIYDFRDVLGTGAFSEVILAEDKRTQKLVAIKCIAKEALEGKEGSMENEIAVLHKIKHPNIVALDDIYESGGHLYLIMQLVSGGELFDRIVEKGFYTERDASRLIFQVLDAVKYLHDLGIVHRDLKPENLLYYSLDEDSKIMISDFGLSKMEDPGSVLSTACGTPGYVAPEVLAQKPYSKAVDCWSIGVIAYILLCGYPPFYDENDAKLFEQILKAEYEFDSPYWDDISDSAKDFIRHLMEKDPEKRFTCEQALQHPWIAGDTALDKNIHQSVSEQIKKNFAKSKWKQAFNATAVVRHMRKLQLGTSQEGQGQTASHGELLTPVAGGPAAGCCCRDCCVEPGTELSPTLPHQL
The target in experiment [13] is Cyclin-dependent kinase 11B (Homo sapiens) (UniProt P21127). The experiment in a line: Selectivity interaction (KinomeScan (DiscoverX)) EUB0000092b CDK11B. As to conditions: at 10 µM.

Structures are written as SMILES.

Serine/threonine-protein kinase/endoribonuclease IRE1 (Homo sapiens), sequence (O75460 19-977 limits assumed): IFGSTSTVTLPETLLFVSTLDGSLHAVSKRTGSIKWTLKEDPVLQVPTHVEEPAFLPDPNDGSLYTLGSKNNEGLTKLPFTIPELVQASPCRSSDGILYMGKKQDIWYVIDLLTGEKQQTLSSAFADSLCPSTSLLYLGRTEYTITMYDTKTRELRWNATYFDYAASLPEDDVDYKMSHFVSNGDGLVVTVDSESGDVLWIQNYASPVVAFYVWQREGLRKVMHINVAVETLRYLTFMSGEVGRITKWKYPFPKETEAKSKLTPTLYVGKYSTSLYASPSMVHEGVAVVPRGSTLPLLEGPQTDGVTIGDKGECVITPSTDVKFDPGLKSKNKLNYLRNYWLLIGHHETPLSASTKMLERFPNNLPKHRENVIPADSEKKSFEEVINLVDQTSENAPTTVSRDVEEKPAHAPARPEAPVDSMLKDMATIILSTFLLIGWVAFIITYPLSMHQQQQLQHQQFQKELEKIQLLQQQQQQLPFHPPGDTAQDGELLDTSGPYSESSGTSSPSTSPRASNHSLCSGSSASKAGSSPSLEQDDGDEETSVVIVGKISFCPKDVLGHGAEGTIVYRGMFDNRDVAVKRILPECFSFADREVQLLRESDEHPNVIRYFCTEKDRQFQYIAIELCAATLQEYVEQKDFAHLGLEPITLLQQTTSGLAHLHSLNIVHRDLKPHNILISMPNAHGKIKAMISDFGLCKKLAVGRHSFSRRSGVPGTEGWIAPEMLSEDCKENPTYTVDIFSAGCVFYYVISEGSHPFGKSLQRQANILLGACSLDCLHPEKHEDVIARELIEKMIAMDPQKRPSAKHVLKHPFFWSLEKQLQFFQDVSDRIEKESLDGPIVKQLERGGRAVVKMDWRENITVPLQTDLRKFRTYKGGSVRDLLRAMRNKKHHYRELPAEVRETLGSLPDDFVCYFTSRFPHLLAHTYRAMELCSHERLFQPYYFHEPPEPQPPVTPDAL
Tyrosine-protein kinase Fes/Fps (Homo sapiens), sequence (P07332 whole entry): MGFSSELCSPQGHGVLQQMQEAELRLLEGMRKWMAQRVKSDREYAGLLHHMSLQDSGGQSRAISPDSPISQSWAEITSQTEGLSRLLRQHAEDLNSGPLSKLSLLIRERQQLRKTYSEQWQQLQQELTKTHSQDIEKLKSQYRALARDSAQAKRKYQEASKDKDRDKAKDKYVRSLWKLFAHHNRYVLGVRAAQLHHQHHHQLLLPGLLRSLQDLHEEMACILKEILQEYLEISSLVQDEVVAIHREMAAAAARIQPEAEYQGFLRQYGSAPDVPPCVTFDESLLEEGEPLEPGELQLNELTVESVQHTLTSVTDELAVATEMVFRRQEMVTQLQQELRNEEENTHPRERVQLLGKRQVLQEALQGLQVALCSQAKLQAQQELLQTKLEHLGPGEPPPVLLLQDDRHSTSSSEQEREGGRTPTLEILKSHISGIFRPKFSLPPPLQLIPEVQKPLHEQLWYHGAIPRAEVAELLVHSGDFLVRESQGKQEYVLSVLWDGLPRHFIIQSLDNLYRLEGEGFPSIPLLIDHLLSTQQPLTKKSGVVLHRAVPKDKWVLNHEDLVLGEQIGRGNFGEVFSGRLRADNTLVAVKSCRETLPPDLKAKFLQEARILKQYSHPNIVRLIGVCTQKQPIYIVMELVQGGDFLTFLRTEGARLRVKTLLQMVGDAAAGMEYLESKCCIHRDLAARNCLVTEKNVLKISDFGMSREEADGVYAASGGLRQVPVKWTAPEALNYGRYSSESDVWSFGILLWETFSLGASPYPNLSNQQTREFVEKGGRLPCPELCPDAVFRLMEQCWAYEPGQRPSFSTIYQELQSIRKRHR

Compound `N#Cc1cccc(-c2c[nH]c3ncnc(N4CCOCC4)c23)c1` had a % of inhibition in experiment [1] of 7%. In addition, in experiment [2], the % of control turned out to be 80%.

Turning to `CCN(CC)CCCCNc1ncc2cc(-c3cc(OC)cc(OC)c3)c(NC(=O)NC(C)(C)C)nc2n1`, the % of control in experiment [3] stood at 9.4%; in experiment [4], 100%; in experiment [5] it was 100%.

`Cc1cc([C@@H](C)Nc2ccccc2C(=O)O)c2nc(N3CCOCC3)cc(=O)n2c1` [AZD-6482] registered a % of control in experiment [6] of 79%.

In [7], `CC[C@@H]1[C@H](F)C(=O)N[C@@H]1COc1nccc2cc(C(N)=O)c(OC)cc12` [ZIMLOVISERTIB] gave a % of inhibition of 21.9%.

As to `C=CC(=O)Nc1cc(-n2c(=O)ccc3cnc4ccc(-c5ccc(NS(C)(=O)=O)cc5)cc4c32)ccc1C`, the % of control in [8] (at 1 µM) amounted to 100%; in experiment [8] (at 10 µM) it was 99%; in [9] (at 1 µM) it was 56%; in [9] (at 10 µM) it was 59%.

For the compound `C=CC(=O)Nc1cccc(C(=O)Nc2ccc(Nc3cc(-c4[nH]c(SC)nc4C)ccn3)cc2)c1`, the values for the % of control in experiment [10] (at 1 µM) and in [10] (at 5 µM) were 95% and 80%, respectively.

`COc1cc(Nc2nc(C)cc(-c3cnn4nc(OC)ccc34)n2)cc(C(F)(F)F)c1`: in experiment [11], the % of control came out at 100%.

On to `CCC(=O)N1CCN(c2ccc(-n3c(=O)ccc4cnc5ccc(-c6cnc7ccccc7c6)cc5c43)cc2C(F)(F)F)CC1`, for which the % of control in experiment [12] was 50%; in experiment [13] it was 97%.
